Data as given in patent US20220024910A1 (published 2022).

A melting point of 278 to 280 °C was found for `Cc1c(C(=O)NN2CCS(=O)(=O)CC2)nn(-c2ccc(Cl)cc2Cl)c1-c1ccc(C#CCCC#N)cc1` in this work.
